Biological target: Pin1 (Homo sapiens, UniProt Q13526)
Assay: Time dependent inactivation of Pin1 (pre-incubation, then protease coupled Pin1 assay)
Assay type: biochemical
Settings: 7.4 uM Pin1 incubated with 200 uM compound, 1% DMF, 35 mM hepes pH 7.8; aliquots diluted to 1 nM Pin1; FIG. 2
Protocol: Pin1 was incubated with Fred-A to determine the effect on peptidyl prolyl isomerase activity.
A solution containing 7.4 uM Pin1, 100 uM juglone 1% DMF, in 35 mM hepes pH 7.8 was incubated. At various time points, aliquots were removed and diluted into assay buffer containing 1 nM Pin1, 13.5 nM juglone, 0.1 mg/ml BSA, 0.2 mM DTT, and 35 mM Hepes pH 7.8. Pin1 activity was measured by using a protease coupled Pin1 assay.
Aliquots of the incubation mixtures were diluted 7,200 fold into assay buffer (0.1 mg/mL BSA, 0.2 mM DTT and 35 mM Hepes pH 7.8) to a final Pin1 concentration of 1 nM. 20 uL of a 0.4 mg/mL trypsin solution in 35 mM Hepes pH 7.8 was added to 1.2 mL Pin1 solution. The enzymatic reaction was initiated by the addition of 3 uL the substrate solution (15/mg/mL of Ac-Ala-Ala-(PO3)Ser-Pro-Arg-pNA dissolved in a solution of 0.5 M LiCl in trifluroethanol). The reaction progress was monitored at 390 nm for 8 minutes at 4° C.
A solution containing 7.4 uM Pin1, 200 uM juglone 1% DMF, in 35 mM hepes pH 7.8 was incubated. At various time points, aliquots were removed and diluted into assay buffer containing 1 nM Pin1, 27 nM juglone, 0.1 mg/ml BSA, 0.2 mM DTT, and 35 mM Hepes pH 7.8. Pin1 activity was measured as described above for juglone.

Pin1, sequence (Q13526 whole entry): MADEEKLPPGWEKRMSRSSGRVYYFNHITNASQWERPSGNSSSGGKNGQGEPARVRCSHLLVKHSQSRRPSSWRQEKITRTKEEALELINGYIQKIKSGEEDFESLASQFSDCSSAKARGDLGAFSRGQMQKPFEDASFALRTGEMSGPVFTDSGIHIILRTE

Substance: Fredericamycin A [Fred-A]
- effect on peptidyl prolyl isomerase activity / covalent modification of Pin1: modified in a manner consistent with covalent modification of the active site

Reference: patent publication US20050004024A1, “Methods of treating Pin1 associated disorders by covalent modification of active site residues” (PINTEX PHARMACEUTICALS, INC., priority 2003, published 2005)
